Results on 1 compound are retold here after patent publication US11149014B2, “Method for treating pain or associated condition or symptom” (priority 2014, dated 2021).

Type in all cases: in vivo
Data set [1] deals with Female sabra mice. Nature of the data set: Forced swimming test (FST) for depressive effect. As to conditions: 5 mg/kg, 10 min after ip. As to the method:
To find out whether HU436 has depressive effects on mice behavior—a forced swimming test (FST) was adopted.
Female sabra mice 6-8 weeks old were employed. Measurement of locomotor activity in mice movements were counted for 6 minutes.
Forced Swimming test (FST): The forced swimming test employed was essential similar to that described in ((Pettit-Demoulier et al, (2005) Psychopharmacology 177:245-255;)
Mice were dropped individually into a glass aquarium (height […], diameter 10 cm) containing 10 cm of water and their activity was monitored for 6 minutes. Of the total 6 minutes only the last 4 minutes was recorded—the first 2 minutes were considered as time for habitation.
The mice were treated either with 5 mg/kg or 10 mg/kg of HU436 (ip). Mice were scored at 10 minutes 90 minutes or 180 minutes after administration. In addition to mice treated with vehicle as control, 1 mice was injected ip with 5 mg/kg CBD and scored 10 minutes later. The movements/kicking of the mice were counted and the data are presented in the attached Table 1.

The test system of data set [2] is Sabra mice. Description: Zymosan-induced hind paw swelling (inflammation), caliper. The following applies: all experiments.
Data set [3] has as its system TNFα. Nature of the data set: TNFα levels in sera of zymosan-injected Sabra mice (Elisa). As to conditions: 24 hrs after application. The method, then:
Activity of HU-436 given orally were assayed in Sabra mice. Zymosan injected to mice left hind paw, induced inflammation, TNF (tumor necrosis factor) in the serum as well as pain. During 24 h, the inflammatory paw swelling response was assayed by caliper, whereas the pain in the hind paw, was determined by Von Frey monofiber instrument.
Sabra female, mice 6-7 weeks old, were employed. Zymosan 0.6 mgr in 40 micro-liters was injected into the left hind paw. Immediately thereafter 20 30, 50 or 100 mg/kg HU436 dissolved in olive oil, in 200 μl—was given orally. Two, six and twenty-four hours thereafter, the injected left hind paw of the mice (total 5-8 mice/treatment), were examined both for swelling (Inflammation) and pain (Von Frey). The levels of TNFα in the sera of Sabra mice were determined by Elisa, 24 hrs after HU-436 application.

Take `C=C(C)[C@@H]1CCC(C)=C[C@H]1c1c(O)cc(CCCCC)cc1O` [CBD, Cannabidiol, reference compound]: the “moment/kicking per minute score, Mean” value in data set [1] (mean of last 4 min) is 65 per minute. Also, the “moment/kicking per minute score” value in data set [1] (minute 3 in tank) was found to be 76 per minute; in data set [1] (minute 4 in tank), 75 per minute; in data set [1] (minute 5 in tank) it was 48 per minute; in data set [1] (minute 6 in tank), 60 per minute. The “potency in reducing inflammation relative to HU-436” value in data set [2] is “scientifically more potent than HU-436 in reducing inflammation”. Besides, the “reduction of TNFα levels in the sera” value in data set [3] is given as 48-58%.
